The text below walks through data of patent US9469645B2, “Compounds and compositions for the treatment of parasitic diseases” (Novartis AG, priority 2009, dated 2016).

A value given as a limit tells only on which side of the number the result lay.

One test concerns W2 strain. The test is described as follows: parasite proliferation assay in infected red blood cells (SYBR Green I), W2 strain. Particulars: Erythrocyte. Type of test: cell-based. From the text: Compounds of the invention can be assayed to measure their capacity to inhibit proliferation of parasitemia in infected red blood cells. The proliferation is quantified by the addition of SYBR Green I (INVITROGEN)® dye which has a high affinity for double stranded DNA.

Another test concerns 3D7 P. falciparum strain. The experiment in a line: parasite proliferation assay in infected red blood cells (SYBR Green I). Particulars: Plasmodium falciparum, 3D7, Erythrocyte, 3D7 strain; read-out: EC50 3D7 strain. Type of test: cell-based, Plasmodium falciparum. In short, it runs like this: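 P. falciparum 3D7 grown in O+ human erythrocytes to 3–8% parasitemia and exposed to compounds. Proliferation read as the increase in parasite DNA. Detection used SYBR Green I in saponin/triton-X/EDTA lysis buffer, with overnight lysis at room temperature.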

Consider `Cc1ccc(Nc2c(-c3ccc(F)cc3)nc3n2CCN(C(=O)[C@H]2CCN2)C3)cc1` [Compound 89], for which the EC50 came out at 73 nM in the test on W2 strain and 50 nM with 3D7 P. falciparum strain.
`C[C@H](OCc1ccccc1)[C@H](N)C(=O)N1CCn2c(nc(-c3ccc(F)cc3)c2Nc2ccc(Cl)c(F)c2)C1` [Compound 312]: the EC50 was determined as 897 nM in the test on W2 strain and 1640 nM with 3D7 P. falciparum strain.
Consider `CC1(C)c2nc(-c3ccc(F)cc3)c(NC3CCC3)n2CCN1C(=O)CN` [Compound 671], for which the EC50 with W2 strain (Plasmodium falciparum) stood at 1090 nM; in the test with 3D7 P. falciparum strain, 1290 nM.
As for `CC(C)C[C@@H](N)C(=O)N1CCn2c(nc(-c3ccc(F)cc3)c2Nc2ccc(Cl)c(F)c2)C1` [Compound 394], the EC50 was 43 nM in the test on W2 strain and 50 nM in the test with 3D7 P. falciparum strain.
Take `NCC(=O)N1CCn2c(nc(-c3ccc(Cl)cc3)c2Nc2ccc(F)cc2)C1` [Compound 55]: the EC50 in the test with W2 strain came out at 437 nM; in the test with 3D7 P. falciparum strain it was 660 nM.
The like results for `CC(C)(N)C(=O)N1CCn2c(nc(-c3ccc(F)cc3)c2Nc2ccc(Cl)cc2)C1` [Compound 39] were, in that order, 24 nM and 20 nM.
Regarding `CC(C)(C)CC(C)(C)Nc1c(-c2ccccc2OC(F)F)nc2ccccn12` [Compound 742], the values for the EC50 with W2 strain (Plasmodium falciparum) and in the test on 3D7 P. falciparum strain were 11600 nM and 6430 nM, respectively.
Take `Cc1ccc(Nc2c(-c3ccc(F)cc3)nc3n2CCN(C(=O)[C@H](N)c2ccccc2)C3)cc1` [Compound 97]: the EC50 in the test on W2 strain is 21 nM; in the test with 3D7 P. falciparum strain it was 40 nM.
As for `COC(C(=O)N1CCn2c(nc(-c3ccc(F)cc3)c2Nc2ccc(C)cc2)C1)(c1ccccc1)C(F)(F)F` (stereo not drawn) [Compound 128], the EC50 in the test on W2 strain worked out at 743 nM; in the test on 3D7 P. falciparum strain it was 1180 nM.
Turning to `CC(O)CN[C@@H](Cc1ccccc1)C(=O)N1CCn2c(nc(-c3ccc(F)cc3)c2Nc2ccc(Cl)c(F)c2)C1` (stereo partly drawn) [Compound 281], the EC50 with W2 strain came out at 596 nM; in the test on 3D7 P. falciparum strain, 820 nM.
Regarding `COCCN[C@@H](Cc1ccccc1)C(=O)N1CCn2c(nc(-c3ccc(F)cc3)c2Nc2ccc(Cl)c(F)c2)C1` [Compound 282], the figures for the EC50 with W2 strain and in the test with 3D7 P. falciparum strain were 117 nM and 120 nM, respectively.
Turning to `Cc1ccc(Nc2c(-c3ccc(F)cc3)nc3n2CCN(C(=O)[C@H](CC(=O)OCc2ccccc2)NC(=O)OC(C)(C)C)C3)cc1` [Compound 151], the EC50 in the test on W2 strain turned out to be 386 nM; with 3D7 P. falciparum strain, 820 nM.
Take `Cc1ccc(Nc2c(-c3ccc(F)cc3)nc3n2CCN(C(=O)C(Nc2ccc(C)cc2)c2ccccc2)C3)cc1` (stereo not drawn) [Compound 371]: the EC50 in the test on W2 strain came to 1280 nM; with 3D7 P. falciparum strain, 1520 nM.
`CC(C)(O)CC(=O)N1CCn2c(nc(-c3cccc(F)c3)c2Nc2ccc(Cl)c(F)c2)C1` [Compound 234]: the EC50 with W2 strain was 111 nM; in the test on 3D7 P. falciparum strain, 130 nM.
With `CC(C)(C)CC(C)(C)Nc1c(-c2ccccc2-c2cccs2)nc2ccccn12` [Compound 741], the figures for the EC50 in the test on W2 strain (Plasmodium falciparum) and in the test on 3D7 P. falciparum strain were 4830 nM and 5250 nM, respectively.
As for `Cc1ccc(Nc2c(-c3ccc(F)cc3)nc3n2CCN(C(=O)[C@@H](N)CCCCN)C3)cc1` [Compound 156], the EC50 was 458 nM in the test with W2 strain and 1830 nM in the test on 3D7 P. falciparum strain.
For `Cc1cc(Nc2c(-c3ccc(F)cc3)nc3n2C(C)(C)CN(C)C3)ccc1Cl` [Compound 610], the figures for the EC50 with W2 strain (Plasmodium falciparum) and in the test with 3D7 P. falciparum strain were 4900 nM and 6250 nM, respectively.
For `O=C(CNCC(F)F)N1CCn2c(nc(-c3ccc(F)cc3)c2Nc2ccc(F)cc2)C1` [Compound 65], the EC50 in the test on W2 strain worked out at 509 nM; in the test with 3D7 P. falciparum strain, 470 nM.
Turning to `N[C@H](Cc1ccccc1)C(=O)N1CCn2c(nc(-c3ccc(F)cc3)c2Nc2ccc(Cl)c(F)c2)C1` [Compound 311], the EC50 in the test on W2 strain turned out to be 72 nM; in the test with 3D7 P. falciparum strain, 90 nM.
Regarding `Cc1ccc(Nc2c(-c3ccc(F)cc3)nc3n2CCN(C(=O)CN)C3(C)C)cc1C` [Compound 654], the figures for the EC50 in the test on W2 strain (Plasmodium falciparum) and in the test with 3D7 P. falciparum strain were 6 nM and 5 nM, respectively.
Take `Cc1ccc(Nc2c(-c3ccc(F)cc3)nc3n2CCN(C(=O)CNc2ccccc2)C3)cc1` [Compound 168]: the EC50 in the test on W2 strain was found to be 11 nM; in the test with 3D7 P. falciparum strain it was 10 nM.
With `Cc1ccc(Nc2c(-c3ccc(F)cc3)nc3n2CCN(C(=O)C[C@@H](N)Cc2ccc(Br)cc2)C3)cc1` [Compound 171], the EC50 in the test with W2 strain turned out to be 214 nM; in the test on 3D7 P. falciparum strain, 170 nM.
The like results for `Cc1ccc(Nc2c(-c3ccc(F)cc3)nc3n2CCN(C(=O)N2CCC(N4CCCCC4)CC2)C3)cc1` [Compound 274] were, in that order, 5670 nM and 5140 nM.
The like results for `Cc1ccc(-c2c(-c3ccc(Cl)cc3)nc3n2CCN(C(=O)C(C)(C)N)C3)cc1` [Compound 47] were, in that order, 6180 nM and 6980 nM.
With `CCCCCNC(=O)C[C@H](NC(=O)OC(C)(C)C)C(=O)N1CCn2c(nc(-c3cccc(F)c3)c2Nc2ccc(F)cc2)C1` [Compound 250], the EC50 worked out at 3980 nM in the test with W2 strain and 3880 nM with 3D7 P. falciparum strain.
Consider `CC1(C)NC2c3nc(-c4ccc(F)cc4)c(Nc4ccc(F)c(F)c4)n3CCN2C1=O` (stereo not drawn) [Compound 646, 8-(3,4-difluorophenylamino)-9-(4-fluorophenyl)-2,2-dimethyl-1,2,5,6-tetrahydrodiimidazo[1,2-a:2′,1′-c]pyrazin-3(10bH)-one], for which the EC50 in the test with W2 strain (Plasmodium falciparum) worked out at 6130 nM; in the test with 3D7 P. falciparum strain, 5680 nM.
`CC(=O)NCCCC[C@H](N)C(=O)N1CCn2c(nc(-c3ccc(F)cc3)c2Nc2ccc(C)cc2)C1` [Compound 101]: the values for the 50% effective concentration (EC50) in the test on W2 strain and in the test with 3D7 P. falciparum strain were 4370 nM and 5090 nM, respectively.
For the compound `Cc1ccc(-c2nc3n(c2Nc2ccc(F)cc2)CCN(C(=O)CN)C3)cc1` [Compound 52], the results for the EC50 in the test with W2 strain and with 3D7 P. falciparum strain were 3360 nM and 3140 nM, respectively.
On to `CC1(C)CN(C(=O)CN)Cc2nc(-c3cccc(F)c3)c(Nc3ccc(F)c(F)c3)n21` [Compound 622], for which the EC50 was 121 nM in the test with W2 strain (Plasmodium falciparum) and 100 nM in the test on 3D7 P. falciparum strain.
Take `CC(C)(N)C(=O)N1CCn2c(nc(-c3cc(F)cc(F)c3)c2Nc2ccc(F)cc2)C1` [Compound 13]: the 50% effective concentration (EC50) with W2 strain was determined as 137 nM; in the test with 3D7 P. falciparum strain it was 260 nM.
Turning to `CC1(C)c2nc(-c3ccc(F)cc3)c([S+]([O-])c3cccc(F)c3)n2CCN1C(=O)CN` (stereo not drawn) [Compound 719], the EC50 in the test on W2 strain (Plasmodium falciparum) was 361 nM; in the test with 3D7 P. falciparum strain it was 481 nM.
As to `Cc1ccc(Nc2c(-c3ccc(F)cc3)nc3n2CCN(C(=O)CC(C)(C)O)C3)cc1` [Compound 100], the EC50 in the test with W2 strain was found to be 143 nM; in the test with 3D7 P. falciparum strain it was 150 nM.
The matching figures for `NC(C(=O)N1CCn2c(nc(-c3ccc(F)cc3)c2Nc2ccc(Cl)c(F)c2)C1)c1ccc(Cl)c(Cl)c1` (stereo not drawn) [Compound 365]: 260 nM and 610 nM.
As to `CCCN(CCC)[C@@H](C)C(=O)N1CCn2c(nc(-c3ccc(F)cc3)c2Nc2ccc(C)cc2)C1` [Compound 148], the EC50 was 1430 nM in the test with W2 strain and 4060 nM with 3D7 P. falciparum strain.
Take `CCN(CC)c1ccc(CN2CCn3c(nc(-c4ccc(F)cc4)c3Nc3ccc(C)cc3)C2)cc1` [Compound 182]: the concentration giving a half-maximal response (EC50) with W2 strain is 1080 nM; with 3D7 P. falciparum strain, 1370 nM.
For `Cc1cc(Nc2c(-c3ccc(F)cc3)nc3n2CCN(C(=O)C(C)(C)N)C3)ccc1Cl` [Compound 629], the EC50 with W2 strain (Plasmodium falciparum) worked out at 23 nM; with 3D7 P. falciparum strain it was 17 nM.
The like results for `Cc1ccc(Nc2c(-c3ccc(F)cc3)nc3n2CC(C)CC3)cc1` (stereo not drawn) [Compound 753] were, in that order, 592 nM and 376 nM.
On to `CC(C)(O)CC(=O)N1CCn2c(nc(-c3cccc(F)c3)c2Nc2ccc(F)cc2)C1` [Compound 235], for which the values for the EC50 with W2 strain and in the test with 3D7 P. falciparum strain were 496 nM and 540 nM, respectively.
Consider `Cc1ccc(CC(=O)N2CCn3c(nc(-c4ccc(F)c(F)c4)c3Nc3ccc(C)cc3)C2)cc1` [Compound 390], for which the results for the EC50 in the test with W2 strain and with 3D7 P. falciparum strain were 28 nM and 30 nM, respectively.
`Cc1ccc(Nc2c(-c3ccc(F)cc3)nc3n2CCN(C(=O)C(O)c2cccc(C(F)(F)F)c2)C3)cc1` (stereo not drawn) [Compound 124]: the EC50 came to 28 nM in the test with W2 strain and 40 nM in the test with 3D7 P. falciparum strain.
Turning to `Cc1ccc(Nc2c(-c3ccc(F)cc3)nc3n2CCN(C(=O)C(C)(C)Nc2ccccc2)C3)cc1` [Compound 374], the EC50 turned out to be 248 nM in the test with W2 strain and 590 nM in the test on 3D7 P. falciparum strain.
The like results for `Cc1ccc(Nc2c(-c3ccc(F)cc3)nc3n2CCN(C(=O)C(C)Oc2ccccc2)C3)cc1` (stereo not drawn) [Compound 202] were, in that order, 102 nM and 160 nM.
Turning to `CC1(C)CN(C(=O)CN)Cc2nc(-c3cccc(F)c3)c(Nc3ccc(Cl)cc3)n21` [Compound 620], the EC50 in the test on W2 strain (Plasmodium falciparum) amounted to 41 nM; with 3D7 P. falciparum strain it was 40 nM.
On to `O=C(CN1CC[C@H](F)C1)N1CCn2c(nc(-c3ccc(F)cc3)c2Nc2ccc(F)cc2)C1` [Compound 59], for which the figures for the EC50 in the test on W2 strain and in the test on 3D7 P. falciparum strain were 735 nM and 1090 nM, respectively.
In the case of `Cc1ccc(Nc2c(-c3ccc(F)cc3)nc3n2CCN(C(=O)CC2CCOC2)C3)cc1` (stereo not drawn) [Compound 215], the EC50 in the test on W2 strain turned out to be 650 nM; in the test on 3D7 P. falciparum strain, 830 nM.
The matching figures for `O=C(NCC(=O)N1CCn2c(nc(-c3ccc(F)cc3)c2Nc2ccc(F)cc2)C1)OCc1ccccc1` [Compound 49]: 1900 nM and 2290 nM.
Turning to `NCC(=O)N1CCn2c(nc(-c3ccc(F)cc3)c2Nc2ccc(C(F)(F)F)cc2)C1` [Compound 73], the EC50 came out at 59 nM in the test with W2 strain and 80 nM in the test on 3D7 P. falciparum strain.
As for `CC1(C)c2nc(-c3ccc(F)cc3)c(NC3CCCCCC3)n2CCN1C(=O)CN` [Compound 665], the EC50 in the test on W2 strain (Plasmodium falciparum) is 69 nM; with 3D7 P. falciparum strain, 102 nM.
Consider `Cc1ccc(Nc2c(-c3ccc(F)cc3)nc3n2CCN(C(=O)CC2CCCCO2)C3)cc1` (stereo not drawn) [Compound 216], for which the EC50 stood at 248 nM with W2 strain and 300 nM with 3D7 P. falciparum strain.
The like results for `CC(C)(N)C(=O)N1CCn2c(nc(-c3ccc(F)cc3)c2NCc2ccccc2)C1` [Compound 23] were, in that order, 10500 nM and > 10600 nM.
On to `CCCNC(=O)C[C@H](N)C(=O)N1CCn2c(nc(-c3ccc(F)cc3)c2Nc2ccc(C)cc2)C1` [Compound 189], for which the EC50 in the test with W2 strain was determined as 392 nM; with 3D7 P. falciparum strain it was 370 nM.
